Reference: PubChem BioAssay (NCI)
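Briefly, cells in 96-well plates were exposed to five compound concentrations for 48 h, and endpoints were estimated by linear interpolation. At the GI50, growth is halved. The concentration for full growth arrest is given as TGI.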

Tests used:
Assay in all cases: growth of human tumour cells (NCI), 48 h
[1] = test system: CCRF-CEM leukemia
[2] = test system: HOP-92 NSCLC
[3] = test system: HS 578T breast
[4] = test system: IGROV1 ovarian
[5] = test system: MALME-3M melanoma
[6] = test system: NCI-H522 lung
[7] = test system: OVCAR-3 ovarian
[8] = test system: SW-620 colon
[9] = test system: TK-10 renal
[10] = test system: UACC-62 melanoma

SMILES | TGI [1] | TGI [2] | TGI [3] | TGI [4] | TGI [5] | TGI [6] | TGI [7] | TGI [8] | TGI [9] | TGI [10] | GI50 [1] | GI50 [2] | GI50 [3] | GI50 [4] | GI50 [5] | GI50 [6] | GI50 [7] | GI50 [8] | GI50 [9] | GI50 [10]
CC1NCCC(CC(=O)O)C1CC(=O)O (stereo unspecified) | > 100 µM | > 100 µM | > 100 µM | > 100 µM | > 100 µM | > 100 µM | > 100 µM | > 100 µM | > 100 µM | > 100 µM |  |  |  |  |  |  |  |  |  | 
OCC1OC(N2CCN(C3OC(CO)C(O)C(O)C3O)CC2)C(O)C(O)C1O (stereo unspecified) |  | > 100 µM | > 100 µM | > 100 µM | > 100 µM | > 100 µM | > 100 µM | > 100 µM | > 100 µM | > 100 µM |  |  |  |  |  |  |  |  |  | 
CC(=O)Nc1ccc2c(c1)[nH]c(=O)c1cc(NC(C)=O)ccc12 | > 100 µM | > 100 µM | > 100 µM | > 100 µM | > 100 µM | > 100 µM | > 100 µM | > 100 µM | > 100 µM | > 100 µM | 53.5 µM | 31.9 µM | > 100 µM | > 100 µM | > 100 µM | > 100 µM | > 100 µM | > 100 µM | > 100 µM | > 100 µM
CCN1C(=O)N(CC)C2C1NN=c1s/c(=C\c3ccc(Br)cc3)c(=O)n12 (stereo unspecified) | > 33.1 µM | > 63.7 µM | > 100 µM | > 82.2 µM | > 100 µM |  | > 100 µM | > 100 µM | > 100 µM | > 100 µM | 0.246 µM | 0.0365 µM | 0.194 µM | 0.275 µM | 2.39 µM | 0.0558 µM | 0.102 µM | 0.0762 µM | 0.741 µM | 0.0557 µM
COc1ccc2c(c1)C(=O)CC(C(N)=O)C2 (stereo unspecified) | > 100 µM | > 100 µM | > 100 µM | > 100 µM | > 100 µM | > 100 µM | > 100 µM | > 100 µM | > 100 µM | > 100 µM |  |  |  |  |  |  |  |  |  | 
Nc1cc2c3ccccc3ccc2c2ccccc12 | > 100 µM | > 100 µM | > 100 µM | > 100 µM | > 100 µM | > 100 µM | > 100 µM | > 100 µM | > 100 µM | > 100 µM | 8 µM | > 100 µM | > 100 µM | > 100 µM | > 100 µM | > 100 µM | > 67 µM | > 100 µM | > 100 µM | > 100 µM
O=C(Nc1ccc(-c2cn3ccccc3n2)cc1)c1cc(Br)ccc1O | > 100 µM | > 100 µM | > 100 µM | > 100 µM | > 100 µM | > 100 µM | > 100 µM | > 100 µM | > 100 µM | > 100 µM |  |  |  |  |  |  |  |  |  | 
Cn1cc(-c2nc(-c3c[nH]c4ccccc34)cs2)c2cccnc21 | > 100 µM | 17.2 µM | > 85.1 µM | > 100 µM | 86.6 µM | 6.67 µM | 5.9 µM | > 100 µM | 65.1 µM | > 72.9 µM | 0.353 µM | 0.295 µM | 0.424 µM | 1.13 µM | 0.745 µM | 0.0586 µM | 0.2 µM | 0.221 µM | 1.46 µM | 0.388 µM
Cc1ccccc1N=C(c1ccccc1)C1C(=O)c2ccccc2C1=O | 62.3 µM | 53.8 µM | 95.3 µM | 39.4 µM | 6.66 µM | 17.7 µM | 5.63 µM | > 100 µM | 38.5 µM | 30.7 µM | 12.8 µM | 14.4 µM | 18.3 µM | 10.7 µM | 0.562 µM | 1.99 µM | 1.32 µM | 25.3 µM | 8.43 µM | 11.6 µM
O=C1NC(=O)/C(=C/c2ccc3nccc(-c4ccncc4)c3c2)S1 | > 10 µM | 0.494 µM | 0.54 µM | 0.612 µM | 2.12 µM | 1.81 µM | 2.07 µM | > 10 µM | 1.24 µM | 1.3 µM | 0.495 µM | 0.0806 µM | 0.119 µM | 0.117 µM | 0.288 µM | 0.23 µM | 0.252 µM | 0.517 µM | 0.197 µM | 0.187 µM
O=C(COc1ccc(Cl)cc1Cl)NNc1ccc([N+](=O)[O-])cc1 |  | 31.7 µM | 95.4 µM | > 100 µM | 57.1 µM |  | > 100 µM | > 100 µM | 74.2 µM | > 100 µM |  | 12.1 µM | 25.6 µM | 36 µM | 23.6 µM |  | > 100 µM | > 100 µM | 30.1 µM | 27.7 µM
O=[N+]([O-])c1ccc(NC(c2ccccc2)c2ccc3cccnc3c2O)cc1 (stereo unspecified) | 7.97 µM | > 100 µM | > 100 µM | > 51.5 µM | > 100 µM | > 100 µM | > 100 µM | > 100 µM | > 100 µM | > 100 µM | 0.246 µM | 0.234 µM | 0.52 µM | 0.388 µM | 0.826 µM | 0.392 µM | 0.45 µM | 0.389 µM | 0.932 µM | 0.51 µM
COC1C[C@H](O[C@@H]2C[C@H](O[C@@H]3C[C@H](O[C@@H]4C(=O)c5c(cc6cc(O[C@H]7C[C@@H](O[C@H]8C[C@@H](O)[C@H](O)C(C)O8)[C@H](O)C(C)O7)c(C)c(O)c6c5O)C[C@H]4C(OC)C(=O)[C@@H](O)[C@@H](C)O)OC(C)[C@H]3O)OC(C)[C@@H]2O)OC(C)[C@@H]1O (stereo partly specified) | > 32.5 µM | 0.25 µM | 4.96 µM |  | 0.437 µM | 0.265 µM | 0.773 µM | > 32.5 µM | 6.4 µM | 0.134 µM | 0.127 µM | 0.0551 µM | 0.0743 µM |  | 0.0861 µM | 0.0696 µM | 0.0936 µM | 0.127 µM | 0.173 µM | 0.0434 µM
CN(N=O)N1C(=O)SCC(c2ccccc2)(c2ccccc2)C1=O | > 100 µM | > 100 µM | > 100 µM |  | > 100 µM | 91.1 µM | > 100 µM | > 100 µM | > 100 µM | > 100 µM |  |  |  |  |  |  |  |  |  | 
